According to ChEMBL document CHEMBL6087432, “Brominated chalcones as promising antileishmanial agents” (Bioorg Med Chem Lett, 2025):

Tests used:
Leishmania amazonensis [1] = assay: Antileishmanial activity against Leishmania amazonensis promastigotes assessed as inhibition of parasite viability at 50 uM measured after 24 hrs by resazurin based colorimetric assay relative to control; format: functional
Leishmania amazonensis [2] = assay: Antileishmanial activity against Leishmania amazonensis promastigotes assessed as inhibition of parasite viability measured after 24 hrs by resazurin based colorimetric assay; format: functional, organism-based
[3] = Cytotoxicity against mouse L929 cells assessed as cell viability upto 50 uM measured after 24 hrs by MTT assay relative to control; format: toxicity, cell-based; details: read-out: Activity
[4] = Cytotoxicity against mouse L929 cells assessed as cell viability at 100 uM measured after 24 hrs by MTT assay relative to control; format: toxicity, cell-based; details: read-out: Activity

| SMILES | inhibition at 50 µM (Leishmania amazonensis [1]) [%] | IC50 (Leishmania amazonensis [2]) [µM] | viability at 24 h, 50 µM [3] [%] | viability at 24 h, 100 µM [4] [%] |
| --- | --- | --- | --- | --- |
| O=C(/C=C/c1ccc(OCc2ccccc2)cc1)c1cccc(Br)c1 | 95 |  |  |  |
| Cc1ccc(/C=C/C(=O)c2cccc(Br)c2)cc1 | 94.8 |  |  |  |
| CSc1ccc(/C=C/C(=O)c2ccc(Br)cc2)cc1 | 39.3 |  |  |  |
| COc1ccc(/C=C/C(=O)c2ccc(Br)cc2)cc1 | 80.7 |  |  |  |
| C[C@@H]1[C@H](O)[C@@H](C)/C=C/C=C/C=C/C=C/C=C/C=C/C=C/[C@H](O[C@@H]2O[C@H](C)[C@@H](O)[C@H](N)[C@@H]2O)C[C@@H]2O[C@](O)(C[C@@H](O)C[C@@H](O)[C@H](O)CC[C@@H](O)C[C@@H](O)CC(=O)O[C@H]1C)C[C@H](O)[C@H]2C(=O)O [AMPHOTERICIN B] |  | 0.115 |  |  |
| O=C(/C=C/c1ccccc1)c1cccc(Br)c1 | 99.8 | 13.8 | > 80 | > 60 |
| COc1ccc(/C=C/C(=O)c2cccc(Br)c2)cc1 | 93 |  |  |  |
| COc1cc(OC)c(OC)cc1/C=C/C(=O)c1ccc(Br)cc1 | 98.2 | 6.33 | > 80 | > 60 |
| O=C(/C=C/c1cccc2ccccc12)c1ccc(Br)cc1 | 83.9 |  |  |  |
| O=C(/C=C/c1ccccc1F)c1cccc(Br)c1 | 91.7 |  |  |  |
| O=C(/C=C/c1cccs1)c1ccc(Br)cc1 | 93.6 |  |  |  |
| CN(C)c1ccc(/C=C/C(=O)c2ccc(Br)cc2)cc1 | 91.2 |  |  |  |
| O=C(/C=C/c1ccc(OCc2ccccc2)cc1)c1ccc(Br)cc1 | 24.2 |  |  |  |
| O=C(/C=C/c1ccc2c(c1)OCO2)c1ccc(Br)cc1 | 87.5 |  |  |  |
| O=C(/C=C/c1cccc2ccccc12)c1cccc(Br)c1 | 90.8 |  |  |  |
| Cc1ccc(/C=C/C(=O)c2ccc(Br)cc2)cc1 | 57 |  |  |  |
| CN(C)c1ccc(/C=C/C(=O)c2cccc(Br)c2)cc1 | 98.7 | 10.8 | > 80 | > 70 |
| O=C(/C=C/c1ccccc1)c1ccccc1 [CHALCONE] | 90.1 | 10.6 |  |  |
| O=C(/C=C/c1ccccc1F)c1ccc(Br)cc1 | 99.4 | 23.9 | > 80 | > 60 |
| O=C(/C=C/C=C/c1ccccc1)c1cccc(Br)c1 | 90.8 |  |  |  |
| O=C(/C=C/C=C/c1ccccc1)c1ccc(Br)cc1 | 33.8 |  |  |  |
| CSc1ccc(/C=C/C(=O)c2cccc(Br)c2)cc1 | 97.3 | 11.4 | > 80 | > 70 |
| O=C(/C=C/c1cccs1)c1cccc(Br)c1 | 86.7 |  |  |  |
